In patent US12324858B2, “Pharmaceutical formulation and system and method for delivery” (Rilento Pharma, LLC, priority 2018, dated 2025):
Entries after “also recorded” stand apart in the source; their conditions may differ. Where a name gives a salt, the structure may show the parent alone.

Experiments:
[1] = Background UV spectra of individual ingredients in pH-2 water; type: physicochemical
Source text: Using the same instrument parameters and cuvettes, spectra were also acquired for each individual ingredient in the mixtures for the purpose of determining background contributions to the overall absorbance spectra that were obtained for the fully formulated mixtures. […] In this way, the background experiments were representative of the highest degree of spectral background contribution that might be potentially observed for the fully formulated devices if the devices were to completely disintegrate and dissolve during the water-soak experiment.
BUP-HCl is known to be a strong chromophore with a documented UV absorption maximum at 262 nm (Corciova, A., Eur. Chem. Bull., 2012, 2(8), 554-557).

[2] = Suspension test of candidate liquids with GLBG (gelation); type: physicochemical; settings: for Gelation of GLBG suspended in the liquid: 2/1 w/w liquid to GLBG, monitoring window 0-24 and 0-48 hours; for Suitable for use in a hydrophilic device / Suitable for use in a hydrophobic device: suspension test with GLBG
Procedure: The suspensions are then qualitatively monitored as a function of time for physical changes, such as the onset of gelation, by using any one of a variety of possible qualitative or quantitative techniques. Note that other liquid to gelatin ratios can also be employed, including ratios that are intended for use in various end-applications. […] Monitoring times of suspensions can include various time points after the suspensions are mixed, including for example, 5 minutes after mixing, 0.5 hours after mixing, 1 hour after mixing, 5 hours after mixing, 24 hours after mixing, 48 hours after mixing, 1 week after mixing, 1 month after mixing, 6 months after mixing, 1 year after mixing, and even 2 to 5 years after mixing. […] Of course, quantitative measurements can also be employed if so desired (e.g., Brookfield viscosity, parallel plate dynamic mechanical techniques, etc.). […] Conversely, if there are signs of gelation, including for example, any one or more of the following responses before the end of the monitoring time window: 1) development of elastic recovery; 2) visualization of permanent coalescence of gelatin particulates; or 3) solid network formation with loss of pourability, then these liquids are by definition excluded as candidates for use in more hydrophobic formulations, and are instead considered as candidate liquids for use in preparing more hydrophilic formulations. […] A spatula was used to stir the ingredients to create a suspension. The suspensions were then allowed to set under static conditions and were qualitatively monitored as a function of time. Results at t=5 minutes after mixing, t=0.5 hours after mixing, t=5 hours after mixing, t=24 hours after mixing, and at t=48 hours after mixing were reported. The tests were conducted at 20 degrees C. with one exception, one of the tests was conducted at 27 degrees C. to ensure that the carrier was above its melt point and in its liquid state.

[3] = mineral oil estimated, cited from earlier work; for HANtotal: Hansen Solubility Parameter, total; for HAN δDispersion / HAN δH-bonding / HAN δPolar: Hansen

CCCCN1CCCCC1C(=O)Nc1c(C)cccc1C (stereo not shown) [BUP free base, bupivacaine]
Relative Absorbance at 270 nm at t = 24 hrs. ([1]; individual ingredient in pH-2 water, background UV spectrum): > or = 4 (i.e.,
Solubility in water ([1]; water): low solubility in water

CCCCN1CCCCC1C(=O)Nc1c(C)cccc1C (stereo not shown) [BUP-HCl, bupivacaine]
Solubility in pH-2 water ([1]; mildly acidic conditions, pH-2 water (dilute HCl)): completely soluble under these conditions

OCC(O)CO [Glycerin]
Gelation of GLBG suspended in the liquid [2]: lead to gelation of gelatin
Gelation of GLBG suspended in the liquid ([2]; listed as glycerin): work time window prior to the onset of gelation was observed to be significantly longer
Suitable for use in a hydrophilic device [2]: Yes
Suitable for use in a hydrophobic device [2]: No

OCC(O)CO [Glycerol]
HANtotal [3]: 36.2 MPa^1/2
HAN δDispersion [3]: 17.4 MPa^1/2
HAN δH-bonding [3]: 29.3 MPa^1/2
HAN δPolar [3]: 12.1 MPa^1/2
HSP ([3]; Hildebrand Solubility Parameter): 33.8 MPa^1/2

CCCCCCCC(=O)OCC(COC(=O)CCCCCCC)OC(=O)CCCCCCC [caprylic triglyceride]
Gelation of GLBG suspended in the liquid [2]: no signs of gelation
Suitable for use in a hydrophilic device [2]: No
Suitable for use in a hydrophobic device [2]: Yes
HANtotal [3]: 17.0 MPa^1/2
HAN δDispersion [3]: 16.2 MPa^1/2
HAN δH-bonding [3]: 4 MPa^1/2
HAN δPolar [3]: 3.4 MPa^1/2

CCCCCCCCCCCCCCCC(=O)OC(C)C [isopropyl palmitate]
Gelation of GLBG suspended in the liquid [2]: no signs of gelation
Suitable for use in a hydrophilic device [2]: No
Suitable for use in a hydrophobic device [2]: Yes

water
Gelation of GLBG suspended in the liquid [2]: lead to gelation of gelatin; also recorded: gelation and elastic network formation was observed to begin almost immediately
Suitable for use in a hydrophilic device [2]: Yes
Suitable for use in a hydrophobic device [2]: No
HAN δDispersion [3]: 15.5 MPa^1/2
HAN δH-bonding [3]: 42.4 MPa^1/2
HAN δPolar [3]: 16.0 MPa^1/2
